From ChEMBL document CHEMBL1201862, “PubChem BioAssay data set” (2004)
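Assay format: 96-well plates, 48-hour exposure. GI50: concentration for 50% inhibition of growth.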 The source made the active and inactive calls. Cut-off read from the data, not from the text of the source: active = GI50 up to about 1.1 µM and inactive = higher.

Assays:
Assay in all cases: growth of human tumour cells (NCI), 48 h
K562 = tested on: K562
RPMI-8226 = tested on: RPMI-8226
HCC 2998 = tested on: HCC 2998
Malme-3M = tested on: Malme-3M
EKVX = tested on: EKVX
NCI-H226 = tested on: NCI-H226
SF-268 = tested on: SF-268
OVCAR-5 = tested on: OVCAR-5
T47D = tested on: T47D
HOP-92 = tested on: HOP-92
TK-10 = tested on: TK-10
SK-MEL-28 = tested on: SK-MEL-28
786-0 = tested on: 786-0
IGROV-1 = tested on: IGROV-1
A549 = tested on: A549
SK-MEL-5 = tested on: SK-MEL-5
MDA-MB-231 = tested on: MDA-MB-231
Hs-578T = tested on: Hs-578T
SNB-75 = tested on: SNB-75

Measured: GI50

CCCCc1ccc(Nc2nc(N)c3[nH]cnc3n2)cc1
inactive: K562 28.1 µM | RPMI-8226 25.4 µM | HCC 2998 24 µM | Malme-3M 22.2 µM | EKVX 19.6 µM | NCI-H226 8.73 µM | SF-268 14.9 µM | OVCAR-5 30.5 µM | T47D 35.1 µM | HOP-92 15.5 µM | TK-10 16.4 µM | SK-MEL-28 22.5 µM | 786-0 17.2 µM | IGROV-1 12.1 µM | A549 21.3 µM | SK-MEL-5 17 µM | MDA-MB-231 19.8 µM | Hs-578T 17.7 µM

O=C1c2ccccc2C2(c3ccc(F)cc3)NCCN12 (configuration not stated)
inactive: K562 > 100 µM | RPMI-8226 > 100 µM | HCC 2998 > 100 µM | Malme-3M > 100 µM | EKVX > 100 µM | NCI-H226 > 100 µM | SF-268 > 100 µM | OVCAR-5 > 100 µM | T47D > 100 µM | TK-10 > 100 µM | SK-MEL-28 > 100 µM | 786-0 > 100 µM | IGROV-1 > 100 µM | A549 > 100 µM | SNB-75 > 100 µM | SK-MEL-5 > 100 µM | MDA-MB-231 > 100 µM | Hs-578T > 100 µM

O=C(NC(=O)c1ccccc1)OC(c1ccccc1)C1CO1 (configuration not stated)
inactive: K562 > 100 µM | RPMI-8226 > 100 µM | HCC 2998 > 100 µM | Malme-3M > 100 µM | EKVX > 100 µM | NCI-H226 > 100 µM | SF-268 > 100 µM | OVCAR-5 > 100 µM | T47D > 100 µM | TK-10 > 100 µM | SK-MEL-28 > 100 µM | 786-0 > 100 µM | IGROV-1 > 100 µM | A549 > 100 µM | SNB-75 > 100 µM | SK-MEL-5 > 100 µM | MDA-MB-231 > 100 µM | Hs-578T > 100 µM

N/C(=N\NC(=O)c1nc2ccccc2s1)c1ccccn1
inactive: K562 4.5 µM | RPMI-8226 2.46 µM | HCC 2998 8.17 µM | Malme-3M 30 µM | EKVX 3.68 µM | SF-268 6.87 µM | OVCAR-5 5.89 µM | T47D 10.6 µM | HOP-92 > 34 µM | TK-10 7.8 µM | SK-MEL-28 43.2 µM | 786-0 4.33 µM | IGROV-1 12.8 µM | A549 3.19 µM | SNB-75 7.74 µM | SK-MEL-5 4.24 µM | MDA-MB-231 14 µM | Hs-578T > 100 µM
